Source: ChEMBL document CHEMBL1149992 (Bioorg Med Chem Lett, 1997)

Key:
Acetylcholinesterase [1] = molecular target: T1, Acetylcholinesterase (Homo sapiens, UniProt P22303); experiment: In vitro selectivity towards Acetylcholinesterase relative to compound 1
Acetylcholinesterase [2] = molecular target: T2, Acetylcholinesterase (Rattus norvegicus, UniProt P37136)
T2 sequence (P37136 whole entry): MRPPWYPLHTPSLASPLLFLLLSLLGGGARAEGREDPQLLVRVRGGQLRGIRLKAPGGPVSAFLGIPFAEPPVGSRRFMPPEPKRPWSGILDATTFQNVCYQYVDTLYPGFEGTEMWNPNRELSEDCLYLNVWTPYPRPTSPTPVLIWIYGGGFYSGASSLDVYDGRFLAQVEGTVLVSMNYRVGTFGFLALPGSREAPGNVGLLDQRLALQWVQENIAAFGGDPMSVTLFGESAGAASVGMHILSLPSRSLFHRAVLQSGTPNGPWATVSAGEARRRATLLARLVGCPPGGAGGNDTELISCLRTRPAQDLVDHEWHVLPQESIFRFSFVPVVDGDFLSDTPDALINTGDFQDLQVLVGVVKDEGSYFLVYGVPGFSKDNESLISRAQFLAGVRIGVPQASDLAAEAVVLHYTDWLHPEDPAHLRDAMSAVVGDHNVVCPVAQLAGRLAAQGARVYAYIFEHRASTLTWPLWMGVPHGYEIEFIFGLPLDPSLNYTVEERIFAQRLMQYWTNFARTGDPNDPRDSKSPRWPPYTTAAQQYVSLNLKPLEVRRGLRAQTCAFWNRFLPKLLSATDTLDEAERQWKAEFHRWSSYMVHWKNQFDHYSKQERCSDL
Description: Compound was tested in vitro for inhibitory activity against Acetylcholinesterase in rat cortex

Acetylcholinesterase [3] = molecular target: T1, Acetylcholinesterase
Description: Compound was tested in vitro for inhibitory activity against Acetylcholinesterase

Butyrylcholinesterase = Butyrylcholinesterase (Rattus norvegicus, UniProt Q9JKC1)
Sequence of Butyrylcholinesterase (Q9JKC1 whole entry): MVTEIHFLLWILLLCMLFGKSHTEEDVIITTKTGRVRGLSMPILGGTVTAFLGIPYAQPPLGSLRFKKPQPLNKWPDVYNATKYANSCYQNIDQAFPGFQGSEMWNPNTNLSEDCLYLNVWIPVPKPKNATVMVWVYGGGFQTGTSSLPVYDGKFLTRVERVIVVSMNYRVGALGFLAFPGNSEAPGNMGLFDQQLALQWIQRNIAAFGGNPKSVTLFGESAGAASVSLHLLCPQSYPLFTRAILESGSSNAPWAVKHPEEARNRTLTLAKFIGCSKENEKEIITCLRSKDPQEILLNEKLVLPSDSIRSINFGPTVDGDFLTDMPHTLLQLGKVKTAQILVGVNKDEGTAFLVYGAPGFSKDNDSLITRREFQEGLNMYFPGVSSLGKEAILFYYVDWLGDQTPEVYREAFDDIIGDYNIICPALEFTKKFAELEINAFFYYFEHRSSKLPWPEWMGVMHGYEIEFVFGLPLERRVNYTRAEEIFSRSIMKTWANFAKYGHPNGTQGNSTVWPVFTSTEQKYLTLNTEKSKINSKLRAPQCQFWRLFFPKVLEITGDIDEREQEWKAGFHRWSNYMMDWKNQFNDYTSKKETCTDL
Description: Compound was tested in vitro for inhibitory activity against Butyrylcholinesterase

T1 sequence (P22303 whole entry): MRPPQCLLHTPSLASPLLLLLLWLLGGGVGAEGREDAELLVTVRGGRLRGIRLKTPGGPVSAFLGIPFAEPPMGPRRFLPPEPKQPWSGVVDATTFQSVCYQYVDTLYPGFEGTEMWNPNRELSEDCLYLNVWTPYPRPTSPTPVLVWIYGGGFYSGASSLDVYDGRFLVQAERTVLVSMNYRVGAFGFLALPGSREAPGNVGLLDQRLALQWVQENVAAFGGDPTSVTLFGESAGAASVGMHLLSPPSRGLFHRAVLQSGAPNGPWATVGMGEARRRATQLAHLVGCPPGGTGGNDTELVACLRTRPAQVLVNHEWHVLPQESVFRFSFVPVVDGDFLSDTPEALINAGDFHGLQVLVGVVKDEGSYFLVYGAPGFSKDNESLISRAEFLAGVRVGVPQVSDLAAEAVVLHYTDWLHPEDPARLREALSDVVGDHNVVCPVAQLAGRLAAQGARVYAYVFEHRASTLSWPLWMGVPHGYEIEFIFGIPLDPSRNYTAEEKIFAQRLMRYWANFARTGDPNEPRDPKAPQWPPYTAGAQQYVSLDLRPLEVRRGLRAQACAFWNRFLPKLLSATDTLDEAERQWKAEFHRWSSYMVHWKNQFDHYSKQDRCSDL

SMILES	Relative Selectivity (Acetylcholinesterase [1])	IC50 (Acetylcholinesterase [2])	IC50 (Acetylcholinesterase [3])	IC50 (Butyrylcholinesterase)
Nc1c2c(nc3ccccc13)-c1ccccc1C2	32.1	0.48 µM	0.676 µM	4.67 µM
Nc1c2c(nc3ccccc13)-c1ccccc1CS2	1.22	> 100 µM	18.6 µM	4.9 µM
Nc1cc(-c2ccccc2)nc2ccccc12	4.86	> 100 µM	11.5 µM	12 µM
Nc1c2c(nc3ccccc13)-c1ccccc1CC2	1.83	4 µM	2.98 µM	1.18 µM
Nc1c2c(nc3ccccc13)-c1ccccc1CO2	0.13	> 100 µM	245 µM	6.58 µM
